Experiment: Zeta potential measurement of aqueous suspensions of powders (Coulter DELSA 440 SX)
Assay type: physicochemical
Conditions: aqueous suspension, pH 4
Excerpt: The zeta potential can be determined directly from the direction and velocity of migration of the dispersed particles in an electrical field, on the basis of the following relation:
[formula] • ζ=zeta potential (in mV) • ε=dielectric constant of the dispersion medium • v=electrophoretic migration velocity (in cm/s) • η=viscosity of the dispersion medium (poise, 1 poise=0.1 Pa·s) • E=field strength (in […]) • f=numerical factor (friction factor), dependent on the shape of the particles, their conductivity, and the size of the particles in comparison to the thickness of the diffuse double layer
The migration velocity here is measured, depending on the size of the particles under investigation, either by means of observation through a light microscope or, particularly in the case of relatively small particles, by means of laser correlation spectroscopy.
The zeta potential of the aqueous suspensions of boron nitride, silicon carbide, diamond, deltamethrin and azoxystrobin powders, all produced in analogy to the example above, was determined as follows. The measurement took place with a Coulter DELSA 440 SX instrument. […] This reversal of the original surface charge was verified for the inventive particles by the experimental measurements below.

SMILES | Zeta potential [mV]
CC1(C)[C@H](C(=O)O[C@H](C#N)c2cccc(Oc3ccccc3)c2)[C@@H]1C=C(Br)Br [CE7, Deltamethrin] | −32
CO/C=C(/C(=O)OC)c1ccccc1Oc1cc(Oc2ccccc2C#N)ncn1 [CE8, Azoxystrobin] | −36

Source: patent US10899932B2, “Non-amphoteric, quaternisable and water-soluble polymers for modifying the surface charge of solid particles” (priority 2014, dated 2021)
